Results on five compounds are retold here after patent publication US20220409629A1, “BENZODIAZEPINE DERIVATIVES FOR TREATING A RESPIRATORY SYNCYTIAL VIRUS (RSV) INFECTION” (priority 2019, published 2022).

The structures appear in SMILES notation. A value given as a limit tells only on which side of the number the result lay.

The nature of data set [1]: Liver hepatocyte stability, dog. The format is in vitro ADME. Conditions: dog hepatocytes, 3 μM compound, 60 min, >80% remaining at 60 min denoted >186, read-out: Liver Hepatocyte Stability: t1/2 (min). How it is done:
Cryopreserved pooled hepatocytes were purchased from a reputable commercial supplier and stored in liquid nitrogen prior to use. Williams E media supplemented with 2 mM L-glutamine and 25 mM HEPES and test compound (final substrate concentration 3 μM; final DMSO concentration 0.25%) are pre-incubated at 37° C. prior to the addition of a suspension of cryopreserved hepatocytes (final cell density 0.5×10^6 viable cells/mL in Williams E media supplemented with 2 mM L-glutamine and 25 mM HEPES) to initiate the reaction. The final incubation volume is 500 μL. Two control compounds were included with each species, alongside appropriate vehicle control. The reactions are stopped by transferring 50 μL of incubate to 100 μL acetonitrile containing internal standard at the appropriate time points. Samples were removed at 6 time points (0, 5, 15, 30, 45 and 60 min) over the course of a 60 min experiment. The termination plates are centrifuged at 2500 rpm at 4° C. for 30 min to precipitate the protein. Following protein precipitation, the sample supernatants were combined in cassettes of up to 4 compounds and analysed using generic LC-MS/MS conditions. From a plot of ln peak area ratio (compound peak area/internal standard peak area) against time, the gradient of the line is determined. Subsequently, half-life (t1/2) and intrinsic clearance (CLint) were calculated.

For the next data set, the system named is RSV A2. As to the kind of experiment: RSV plaque reduction assay. The format is cell-based, respiratory syncytial virus (RSV). To be noted: human respiratory syncytial virus, HepG2; Hep-G2 cells, RSV A2, mean of at least two experiments. A digest of the protocol: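 RSV A2 (100 PFU/well) premixed with eight serial compound dilutions, added to confluent Hep-G2 monolayers for 2 h at 37° C, then held 2 days under CMC overlay containing compound (DMEM, 2% FBS). Plaques immunostained (HRP/TrueBlue) and counted; EC50 is 50% reduction versus virus control from 4-parameter fit, mean of ≥2 experiments.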
In general terms: In a plaque reduction assay, fewer plaques than in the control indicate reduced infectivity or spread.

A short description of data set [2]: Liver microsomal stability, dog. It is filed as in vitro ADME. To be noted: pH 7.4; dog liver microsomes, 0.5 mg/mL protein, 1 μM compound, NADPH; >80% remaining at 45 min denoted >140; read-out: Liver Microsomal Stability: t1/2 (min); dog. The method, boiled down: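 Pooled liver microsomes (0.5 mg/mL protein) in 0.1 M phosphate pH 7.4 with 1 μM compound (0.25% DMSO), started with 1 mM NADPH at 37° C; sampled 0-45 min, minus-NADPH control 45 min. LC-MS/MS depletion slope gave t1/2 and CLint.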
A general note: Liver microsomes are vesicles of endoplasmic reticulum, rich in cytochrome P450 enzymes.

On to `CCn1ncc(C(=O)N[C@H]2N=C(c3ccccc3)c3ccccc3NC2=O)c1-c1ccc(NC(C)C)nc1F` [Example 3, 1-Ethyl-5-[2-fluoro-6-(propan-2-ylamino)pyridin-3-yl]-N-[(3S)-2-oxo-5-phenyl-1,3-dihydro-1,4-benzodiazepin-3-yl]pyrazole-4-carboxamide], for which the half-life at 3 µM in data set [1] was found to be 67.4 min. The compound also had an EC50 with RSV A2 of 97 nM. Further, the half-life at 1 µM in data set [2] is 45.3 min.
As for `CCn1ncc(C(=O)N[C@H]2N=C(c3ccccc3)c3ccccc3NC2=O)c1-c1ccc(NC2CC2)nc1F` [Example 4, 1-Ethyl-5-[2-fluoro-6-(cyclopropylamino)pyridin-3-yl]-N-[(3S)-2-oxo-5-phenyl-1,3-dihydro-1,4-benzodiazepin-3-yl]pyrazole-4-carboxamide], the half-life in data set [1] is 42.1 min; in data set [2], 14.4 min. The compound also had a concentration for a half-maximal effect (EC50) with RSV A2 of 42 nM.
Taken in the same sequence, the figures for `O=C(N[C@H]1N=C(c2ccccc2)c2cccc(F)c2NC1=O)c1cnn(C2CCOCC2)c1-c1ccc(NC2CC2)nc1F` [Example 21, 5-[6-(Cyclopropylamino)-2-fluoropyridin-3-yl]-N-[(3S)-9-fluoro-2-oxo-5-phenyl-1,3-dihydro-1,4-benzodiazepin-3-yl]-1-(oxan-4-yl)pyrazole-4-carboxamide] were above 186 min, 124 min and 21 nM.
For `CC(C)Nc1ccc(-c2c(C(=O)N[C@H]3N=C(c4ccccc4)c4cccc(F)c4NC3=O)cnn2C2CCOCC2)c(F)n1` [Example 22, N-[(3S)-9-fluoro-2-oxo-5-phenyl-1,3-dihydro-1,4-benzodiazepin-3-yl]-5-[2-fluoro-6-(propan-2-ylamino)pyridin-3-yl]-1-(oxan-4-yl)pyrazole-4-carboxamide] the same measures were 90.7 min, 88.6 min and 40 nM.
Taken in the same sequence, the figures for `CCNc1ccc(-c2c(C(=O)N[C@H]3N=C(c4ccccc4)c4cccc(F)c4NC3=O)cnn2C2CCOCC2)c(F)n1` [Example 24, 5-[6-(Ethylamino)-2-fluoropyridin-3-yl]-N-[(3S)-9-fluoro-2-oxo-5-phenyl-1,3-dihydro-1,4-benzodiazepin-3-yl]-1-(oxan-4-yl)pyrazole-4-carboxamide] were 139 min, 198 min and 33 nM.

The EC50 is the concentration needed to bring the measured effect to its halfway point. Higher therefore signals lower potency in that assay.
